Experimental data: the OPERA property sets (Mansouri et al. 2018)
In brackets after ≈: the same amount, converted by molar mass. Where a SMILES comes first, the peptide text is derived from it. The star is where a group is joined. NHtBu = CC(C)(C)N*

First: CCCCC(C)=NNC(N)=Nc1ccccc1
Second: CC(C)CC(=O)OCc1ccccc1
The logP of the first is lower: 2.05 for the first, 3.26 for the second.

Going from `Cc1cc(C)nc(NS(=O)(=O)c2ccc(N)cc2)n1` to `COc1nc(C)nc(NC(=O)NS(=O)(=O)c2ccccc2Cl)n1`, the logP rises from 0.19 to 2.

Going from `COC(=O)c1cc2ccccc2[nH]1` to `CNC(=O)CCc1c[nH]c2ccccc12`, the logP falls from 2.45 to 1.23.

`c1ccc2c(c1)ccc1nc3c(ccc4ccccc43)cc12` and `c1ccc2c(c1)ccc1nc3ccc4ccccc4c3cc12` are within 0.2 log units of each other in logP: 5.73 for the first, 5.63 for the second.

Going from `NS(=O)(=O)c1nn2c(=Nc3ccc(O)cc3)snc2s1` to `Nc1ccc(S(=O)(=O)O)c(N)c1`, the logP falls from 1.89 to -4.65.

First: CC(C)C(=O)Nc1ccc([N+](=O)[O-])c(C(F)(F)F)c1
Second: Cc1ccc([N+](=O)[O-])cc1C
The logP of the first is higher: 3.35 for the first, 2.91 for the second.

First: CC[N+](CC)(CC)CC.[Cl-]
Second: CCCCCCCCC(C)=O
The logP of the first is lower: -3.15 for the first, 3.73 for the second.

First: Cc1cc(=O)oc2cc(C3OC(C(=O)O)C(O)C(O)C3O)ccc12 (stereo not given)
Second: CCOC(=O)C1=C(COCCN)NC(C)=C(C(=O)OC)C1c1ccccc1Cl (stereo not given)
The logP of the first is lower: -0.39 for the first, 3 for the second.

Compared with `CN1CC=C(c2ccc(Cl)cc2)CC1`, `NCCCN1c2ccccc2Sc2ccc(Cl)cc21` is higher in logP: 3.32 for the first, 4.47 for the second.

Going from `O=C(O)CNC(=O)c1ccc(I)cc1` to `O=C(O)CNC(=O)c1ccccc1I`, the logP falls from 1.94 to 0.97.

`O=c1[nH]c(=O)c2[nH]c(=O)[nH]c2[nH]1` and `Cc1cn(C2CC(O)C(CN)O2)c(=O)[nH]c1=O` (stereo not given) are within 0.2 log units of each other in logP: -2.17 for the first, -2.05 for the second.

First: COc1ccc(C(N)=S)cc1
Second: N=C(N)NN=Cc1ccc([N+](=O)[O-])cc1
The logP of the first is higher: 1.63 for the first, 0.87 for the second.

First: NC(=O)c1ccccc1NCCO
Second: NC(=O)c1ccccc1NCC(O)CO (stereo not given)
The logP of the first is higher: -0.05 for the first, -0.8 for the second.

`Cc1cccc(Nc2ccccc2C(=O)O)c1` and `Cc1ccc2cc3ccccc3cc2c1` are within 0.2 log units of each other in logP: 4.88 for the first, 5 for the second.

First: CCOC(=O)[C@@H](N)Cc1ccc(O)c(O)c1
Second: Cc1ccccc1CCN
The logP of the first is lower: 0.28 for the first, 1.6 for the second.

Compared with `O=[N+]([O-])c1nc[nH]c1I`, `Cn1cnc(I)c1[N+](=O)[O-]` is higher in logP: 0.28 for the first, 1.29 for the second.

First: CNC(=O)CCC(=O)c1cccnc1
Second: O=C(OCn1ncc2c(=O)[nH]cnc21)c1cccnc1
The logP of the first is lower: -0.69 for the first, 0.27 for the second.

First: CCn1cc(C(=O)O)c(=O)c2cc(F)c(N3CCNC(C)C3)c(F)c21 (stereo not given)
Second: CCON=C(CC)C1=C(O)CC(c2c(C)cc(C)cc2C)CC1=O (stereo not given)
The logP of the first is lower: -0.3 for the first, 4.46 for the second.

First: C[Si]1(C)O[Si](C)(C)O[Si](C)(C)O[Si](C)(C)O[Si](C)(C)O[Si](C)(C)O1
Second: CC(C)OC(C)C
The logP of the first is higher: 9.06 for the first, 1.52 for the second.

Compared with `C=COCCn1cnc2c(=N)n(C)c(=O)[nH]c21`, `Nc1ncnc2c1ncn2C1OC2COP(=O)(OCc3ccccc3)OC2C1O` (stereo not given) is higher in logP: -0.24 for the first, 1.15 for the second.

First: CN(C)C(=O)n1nc(C(C)(C)C)nc1SCC(=O)O
Second: CC(=O)NC(C)C(=O)NC(CCC(=O)O)C(=O)NC(C)(C)C (stereo not drawn) (Ac-Ala-Glu-NHtBu; configuration not given here)
The logP of the first is higher: 1.62 for the first, -0.67 for the second.

Compared with `COc1cc(Cl)c(Cl)cc1Cl`, `Clc1ccc2cc(Cl)c(Cl)cc2c1` is higher in logP: 3.85 for the first, 5.12 for the second.

First: CNc1nc(C)nc(C(Cl)(Cl)Cl)n1
Second: CC(C)Nc1nc(Cl)nc(NCCO)n1
The logP of the first is higher: 2.43 for the first, 0.78 for the second.

Going from `CCCCCCNC(=O)CCC(NS(=O)(=O)c1ccc(C)cc1)C(=O)O` (stereo not given) to `CCCCCCN1CC(C(=O)OC)CC1=O` (stereo not given), the logP rises from 0.84 to 2.3.

Going from `CCC(C)n1ncn(-c2ccc(N3CCN(c4ccc(OC[C@H]5CO[C@](Cn6cncn6)(c6ccc(Cl)cc6Cl)O5)cc4)CC3)cc2)c1=O` (stereo not given in full) to `CCc1cc2c(s1)N(C)C(=O)CN=C2c1ccccc1Cl`, the logP falls from 5.66 to 3.18.

`C=CC(=O)NCCN(C)C` and `COCCOCCOC` are within 0.2 log units of each other in logP: -0.25 for the first, -0.36 for the second.

Compared with `CCCCN=C=S`, `OCC(CO)(CO)CO` is lower in logP: 2.92 for the first, -1.69 for the second.

First: N#CC(C#N)=Cc1ccc(Br)o1
Second: OCc1c(F)cccc1F
The logP of the first is higher: 2.16 for the first, 1.12 for the second.

Compared with `CC(=O)n1ncc2c(O)ncnc21`, `CC(C)C1(C)N=C(c2nc3ccccc3cc2C(=O)O)NC1=O` (stereo not given) is higher in logP: -0.35 for the first, 1.86 for the second.

Compared with `O=S(=O)(C(Cl)(Cl)Cl)C(Cl)(Cl)Cl`, `ClC1=C(Cl)C2(Cl)C(Cl)=C(Cl)C3CC1C(Cl)C32` (stereo not given) is higher in logP: 3.3 for the first, 5.66 for the second.

First: Cc1c(Cl)c(Cl)c(C(C)C)c(Cl)c1Cl
Second: Clc1ccc2c(Cl)c(Cl)c(Cl)c(Cl)c2c1
The logP of the first is lower: 6.8 for the first, 7 for the second.

First: O=[N+]([O-])c1ccc2c(c1)NCC2
Second: Cc1c(Cl)cccc1[N+](=O)[O-]
The logP of the first is lower: 1.92 for the first, 3.09 for the second.

Compared with `OC(CNC1CCCCC1Br)Cn1ccnc1` (stereo not given), `N=C(N)NN=Cc1ccccc1[N+](=O)[O-]` is lower in logP: 1.21 for the first, 0.53 for the second.

First: CN(C)P(=O)(N1CCCC1)N1CCCC1
Second: NS(=O)(=O)c1cc2cc(CN3CCOCC3)sc2o1
The logP of the first is higher: 1.88 for the first, 0.88 for the second.

Compared with `Clc1ccc(-c2ccccc2Cl)cc1Cl`, `c1ccc2cc3c(cc2c1)-c1cccc2cccc-3c12` is higher in logP: 5.87 for the first, 6.11 for the second.

First: FC(F)(F)c1cccc(Cn2cncn2)c1
Second: CC(C)(C)NSc1nc2ccccc2s1
The logP of the first is lower: 1.74 for the first, 4.67 for the second.

First: CSc1nc(N=[N+]=[N-])nc(NC(C)C)n1
Second: Clc1cc(Cl)c2[nH]c3c(Cl)cc(Cl)cc3c2c1
The logP of the first is lower: 3 for the first, 5.75 for the second.

`ClC=C1C2C(Cl)C(Cl)C(C2Cl)C1(CCl)CCl` (stereo not given) gave a logP of 5.35.

First: ClC1=C(Cl)C(Cl)(Cl)C(Cl)(Cl)C1(Cl)Cl
Second: Clc1ccc2cc(Cl)c(Cl)cc2c1
The solubility of the first is 4-fold higher: 0.291 µM (≈ 0.1 µg/mL) for the first, 0.0721 µM (≈ 0.0167 µg/mL) for the second.

First: Nc1ccc(Cc2ccc(N)c(Cl)c2)cc1Cl
Second: Nc1cccc(Cl)c1
The solubility of the first is 810-fold lower: 52 µM (≈ 13.9 µg/mL) for the first, 42300 µM (≈ 5400 µg/mL) for the second.

`CCCCNC(=O)n1cc(F)c(=O)[nH]c1=O` gave a solubility of 3580 µM (≈ 820 µg/mL).
